In US6803186B2, “Compositions and methods for increasing amino acid absorption in mammals” (The IAMS Company, priority 2001, dated 2004):
Square brackets hold non-standard residues; d marks the D form. Peptide text beside a SMILES is read from it. Sar = CNCC(=O)O

Molecular target: T1, canine PepT1 (cPepT1) (Canis lupus familiaris, UniProt Q8WMX5)
T1 construct: endogenous in cells; host or cells: MDCK (Madin-Darby Canine Kidney) cells, whole-cell [3H]-GlySar uptake
T1 sequence (Q8WMX5 1-708): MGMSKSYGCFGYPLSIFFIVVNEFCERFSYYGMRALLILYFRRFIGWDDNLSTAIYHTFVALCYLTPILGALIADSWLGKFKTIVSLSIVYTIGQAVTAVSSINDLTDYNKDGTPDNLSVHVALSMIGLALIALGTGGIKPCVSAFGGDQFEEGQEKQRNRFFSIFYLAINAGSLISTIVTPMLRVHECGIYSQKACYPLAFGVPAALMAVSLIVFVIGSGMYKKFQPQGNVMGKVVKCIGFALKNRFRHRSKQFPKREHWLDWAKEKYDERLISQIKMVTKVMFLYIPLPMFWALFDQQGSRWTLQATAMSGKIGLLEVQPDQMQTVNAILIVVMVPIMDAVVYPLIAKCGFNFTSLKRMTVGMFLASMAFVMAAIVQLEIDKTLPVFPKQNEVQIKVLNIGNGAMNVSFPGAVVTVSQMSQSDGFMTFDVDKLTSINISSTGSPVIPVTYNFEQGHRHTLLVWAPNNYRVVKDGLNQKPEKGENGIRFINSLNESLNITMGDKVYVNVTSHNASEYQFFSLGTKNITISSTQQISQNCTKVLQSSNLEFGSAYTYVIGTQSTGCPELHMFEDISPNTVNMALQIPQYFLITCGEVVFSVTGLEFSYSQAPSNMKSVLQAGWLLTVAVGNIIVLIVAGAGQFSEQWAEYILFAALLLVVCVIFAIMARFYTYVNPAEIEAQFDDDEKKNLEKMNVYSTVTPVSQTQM
Assay: Substrate regulation of H+-dependent GlySar uptake capacity of MDCK cells cultured in DMEM (Example 3, Trials 1 and 2)
Type: cell-based
Details: 10 mM in DMEM, 24 h of culture
Method: All cells were plated (60,000/2 cm^2 well) and cultured (95% air/5% CO2, 37° C.) for 24 h in Dulbecco's Modified Eagle Media/10% fetal calf serum (FCS)/1%Antibiotic/Antimicrobial solution (ABAM) (DMEM media). Following these initial common culture conditions, cells then were cultured in DMEM, or DMEM that contained 10 mM of Camosine, GlyPhe, Phe, or Gly. Media were changed every 24 h. Media treatments (n=8) were as follows:
The measurement of [^3H]Glysarcosine uptake was performed by using a 24-well cluster tray method (Kilberg M S. Measurement of amino acid transport by hepatocytes in suspension and monolayer culture. Methods Enzym 1989; 173:564-575. Matthews J C, Aslanian A, McDonald K K, Yang W, Malandro M S, Novak D A, Kilberg M S. An expression system for mammalian amino acid transport using a stably maintained episomal vector. Anal Biochem 1997; 254:208-214), and used in Examples 1 and 2. Cells were cultured for 30 min in air at 37° C. in depletion medium (25 mM Hepes/Tris (pH 7.5), 140 mM NaCl, 5.4 mM KCl, 1.8 mM CaCl2, 0.8 mM MgSO4, and 5 mM glucose), to normalize intracellular nutrient pools before transport. The transport assays are initiated by replacing depletion medium with uptake medium (Depletion medium adjusted to pH 6.0) that contained 100 μM GlySar (5 μCi/mL, with [^3H]-GlySar supplying 2.88% of total GlySar). After a 30 minute incubation period, transport was terminated with four rinses of 4° C. depletion medium (pH 7.5). Two hundred and twenty μL of 10% trichloroacetic acid was added to each well, and the radioactivity of the supernatant quantified by liquid scintillation counting. The cells of each well are solubilized in 0.2 N NaOH/0.2% SDS and the protein quantified by using the modified Lowry assay, using bovine serum as a standard. Id. Peptide uptake will be reported as pmol* mg^−1 protein* 30 min^−1. Uptake measurements were taken after 24, 48, and 72 hours of culture in treatment media.
The MDCK cell line was maintained as described previously in the Methods section of Trial 1. […]

- increase in GlySar uptake capacity over DMEM control media: about 30%
SMILES: CN(CC(=O)O)C(=O)CN [GlySar, glycylsarcosine] (H-Gly-[Sar]-OH)
